In the data set the target is SMN2. Kind of data set: mouse, dose not given. The following applies: ASO.

HELM strings list units from the 5' end as sugar, base in round brackets, then linkage (d deoxyribose, r ribose, m 2'-O-methyl, p phosphodiester). Strings are as the collection lists them; they lack the last nucleoside at the 3' end of the tested compound. [moe] = 2'-O-(2-methoxyethyl) (MOE); [sp] = phosphorothioate linkage; [m5C] = 5-methylcytosine

The values below come from the OligoGym collection.

Regarding “RNA1{[moe](T)[sp].[moe]([m5C])p.[moe](A)[sp].[moe]([m5C])[sp].[moe](T)[sp].[moe](T)[sp].[moe](T)[sp].[moe]([m5C])[sp].[moe](A)[sp].[moe](T)[sp].[moe](A)[sp].[moe](A)[sp].[moe](T)[sp].[moe](G)[sp].[moe]([m5C])[sp].[moe](T)[sp].[moe](G)}$$$$ (last 3' nucleoside missing)”, the 3 h FOB score worked out at 3.25 score 0-7.

On to “RNA1{[moe]([m5C])[sp].[moe](A)p.[moe]([m5C])p.[moe](T)p.[moe](T)[sp].[moe](T)[sp].[moe]([m5C])[sp].[moe](A)[sp].[moe](T)[sp].[moe](A)[sp].[moe](A)[sp].[moe](T)[sp].[moe](G)[sp].[moe]([m5C])p.[moe](T)p.[moe](G)[sp].[moe](G)}$$$$ (last 3' nucleoside missing)”, for which the 3 h FOB score is 0 score 0-7.
